According to paper PMC10350917 (Journal of Medicinal Chemistry, 2023):
Where “and” joins values, the source holds several entries; their conditions need not be identical. Equal values may be shown once. Read-outs that look alike come from different tables or passages of the source.

What was measured:
[1] = molecular target: T1, ADC-162 (Acinetobacter baumannii, UniProt A0A2H4PPJ8); assay: Inhibition kinetics (competition with nitrocefin), ADC-162; format: biochemical
Method: (§1) For inhibition kinetics, utilizing nitrocefin (NCF) as a colorimetric substrate, the inhibition constant (Ki) of MB076 and S02030 BATSI with ADCs was determined using competition kinetics as previously described.[10],[25],[28],[34] The measurements of the initial velocities were performed with the addition of 100 μM NCF after a 3 min pre-incubation of the enzyme (2 nM) with increasing concentration of the inhibitor. […] The Ki value was corrected for the NCF affinity (KM values for each ADC variant listed in Table 1) with the Cheng–Prusoff[35] equation: [drawing 2]

[2] = in vitro; conditions: human, plasma, pH 7.4
Method: (§2) The in vitro stability of MB076 and S02030 was evaluated by incubating the compounds in both buffer (pH 7.4) and human plasma at 37 °C over 48 h. Half-lives (t1/2) were then calculated for each compound.
(§3) Plasma and buffer stability samples were analyzed by monitoring the disappearance of the compounds using high-performance liquid chromatography-mass spectrometry (LC–MS) techniques.
Half-lives (t1/2) were calculated in Origin using a one-phase decay model with t1/2 = ln(2)/b, where b is the slope of a linear plot of natural logarithm (ln) of the remaining compound concentration (C) versus incubation time. Each condition was tested in triplicate.

[3] = test system: SHV-1; conditions: ref [14],[25]; cited from earlier work
[4] = molecular target: T2, ADC-7 (Acinetobacter baumannii, UniProt Q6DRA1); conditions: ref [10]; cited from earlier work
[5] = molecular target: ADC variants; assay: Inhibition kinetics, statement for all ADC variants; format: biochemical, Acinetobacter baumannii; conditions: bound stated for all ADC variants of the study
Method: as §1

[6] = physchem; conditions: buffer, pH 7.4
Method: as §2, §3
Standard solutions were prepared by adding the compound in DMSO (2.5 μM) to 0.1 M phosphate buffer pH 7.4 and MeOH. Solutions were vortexed, filtered, and analyzed by LC–MS (At=0). Samples were then prepared by adding a solution of the compound in DMSO (2.5 μM) to phosphate buffer pH 7.4 and incubating at 37 °C. At suitable time intervals, the reaction was stopped by the addition of MeOH. The solutions were vortexed and filtered. Degradation time courses were followed by LC–MS enabling the quantitation of compounds. Half-lives (t1/2) were calculated in Origin using a one-phase decay model with t1/2 = ln(2)/b, where b is the slope of a linear plot of natural logarithm (ln) of the remaining compound concentration (C) versus incubation time. Each condition was tested in triplicate.

[7] = molecular target: T3, ADC-30 (Acinetobacter baumannii, UniProt A7XM81); assay: Inhibition kinetics (competition with nitrocefin), ADC-30; format: biochemical; conditions: 100 μM nitrocefin, 3 min pre-incubation
Method: as §1

[8] = test system: KPC-2; conditions: ref [14],[25]; cited from earlier work
[9] = molecular target: T4, ADC-33 (Acinetobacter baumannii, UniProt A7Y407); assay: Inhibition kinetics (competition with nitrocefin), ADC-33; format: biochemical; conditions: 100 μM nitrocefin, 3 min pre-incubation
Method: as §1

[10] = test system: ADC-7 in pBCSK(−) E. coli DH10B; assay: Broth microdilution AST, ADC-7; format: cell-based; conditions: Escherichia coli, E. coli DH10B ADC-7, MB076 fixed at 10 mg/L in combinations, FDC in iron-depleted broth
Method: (§4) Susceptibility testing to standard antibiotics was performed by broth microdilution or agar dilution using an Oxoid replicator according to 2021 Clinical and Laboratory Standards Institute (CLSI) guidelines. MICs for CAZ, CTX, FEP, and TOL were determined using cation-adjusted Mueller Hinton MH broth, and MICs for FDC were done in iron-depleted cation-adjusted MH broth according to CLSI methods. MB076, S02030, and VAB were used at a fixed concentration of 10 mg/L. All MICs were interpreted according to the 2021 CLSI guidelines.[43]
(§5) blaADC-7 pBCSK- was cloned and expressed in E. coli DH10B cells as previously described.[44] All other blaADC variants were synthesized by GenScript according to the blaADC-7 pBCSK- strategy, cloning into the XbaI/BamHI sites of the pBCSK- vector.

[11] = test system: ADC-33 in pBCSK(−) E. coli DH10B; assay: Broth microdilution AST, ADC-33; format: cell-based; conditions: Escherichia coli, E. coli DH10B ADC-33, MB076 fixed at 10 mg/L in combinations, FDC in iron-depleted broth
Method: as §4, §5

[12] = test system: ADC-212 in pBCSK(−) E. coli DH10B; assay: Broth microdilution AST, ADC-212; format: cell-based; conditions: Escherichia coli, E. coli DH10B ADC-212, MB076 fixed at 10 mg/L in combinations, FDC in iron-depleted broth
Method: as §4, §5

[13] = test system: ADC-219 in pBCSK(−) E. coli DH10B; assay: Broth microdilution AST, ADC-219; format: cell-based; conditions: Escherichia coli, E. coli DH10B ADC-219, MB076 fixed at 10 mg/L in combinations, FDC in iron-depleted broth
Method: as §4, §5

[14] = test system: ADC-30 in pBCSK(−) E. coli DH10B; assay: Broth microdilution AST, ADC-30; format: cell-based; conditions: Escherichia coli, E. coli DH10B ADC-30, MB076 fixed at 10 mg/L in combinations, FDC in iron-depleted broth
Method: as §4, §5

[15] = molecular target: T4, ADC-33
Method: (§6) Steady-state kinetic parameters were determined by combining pure enzyme with antibiotic substrates in 50 mM NaH2PO4, pH 7.4 at room temperature. Changes in absorbance were measured on a Cary 60 UV–Vis spectrophotometer (Agilent Technologies) and converted to velocity using the change in extinction coefficient specific to nitrocefin (ε482 = 17,400 M^–1·cm^–1), cephalothin (ε262 = 7660 M^–1·cm^–1), ceftazidime (ε260 = 8660 M^–1·cm^–1), cefotaxime (ε260 = 7500 M^–1·cm^–1), cefepime (ε260 = 750 M^–1·cm^–1), cefiderocol (ε259 = 9430 M^–1·cm^–1), and ceftolozane (ε254 = 6810 M^–1·cm^–1). Initial velocities were fit to the Michaelis–Menten equation yielding kcat and KM values. For ADC/substrate combinations in which the KM was too large to accurately determine both kcat and KM values, the initial velocities at kcat/KM values were calculated from linear fits of vo in low [S] ranges (<0.08 × KM).

[16] = molecular target: T1, ADC-162; conditions: substrate
Method: as §6

[17] = molecular target: T3, ADC-30
Method: as §6

[18] = molecular target: T2, ADC-7
Method: as §6

[19] = molecular target: ADC-212 (Acinetobacter baumannii, UniProt A8QIF8, A224D/INS243L/P244A); format: biochemical; conditions: substrate
Method: as §6

[20] = molecular target: ADC-219 (Acinetobacter baumannii, UniProt A7Y407, G248D); format: biochemical; conditions: substrate
Method: as §6

O=C(Cc1cccs1)N[C@@H](Cn1cc(C(=O)O)nn1)B(O)O [S02030]
Ki [1]: 160 ± 10 nM
half-life at 2.5 μM [2]: 9 h
IC50 [3]: 130 nM
Ki [4]: 44.5 nM and 44 nM and 45 nM
Ki [5]: < 1000 nM
half-life [6]: 8 h
Ki [7]: 28 ± 2 nM
IC50 [8]: 80 nM
Ki [9]: 110 ± 4 nM

CO/N=C(\C(=O)N[C@@H]1C(=O)N2C(C(=O)[O-])=C(C[N+]3(C)CCCC3)CS[C@H]12)c1csc(N)n1 [cefepime]
MIC [10]: 0.25 µg/mL
MIC [11]: 0.5 µg/mL
MIC [12]: 0.5 µg/mL
MIC [13]: 0.12 µg/mL
MIC [14]: 0.25 µg/mL

CC(C)(O/N=C(\C(=O)N[C@@H]1C(=O)N2C(C(=O)[O-])=C(C[N+]3(CCNC(=O)c4ccc(O)c(O)c4Cl)CCCC3)CS[C@H]12)c1csc(N)n1)C(=O)O [cefiderocol]
MIC [10]: 0.5 µg/mL
kcat ([15]; ADC-33, substrate): 0.60 s^–1
MIC [11]: 2 µg/mL
MIC [12]: 1 µg/mL
MIC [13]: 1 µg/mL
MIC [14]: 0.5 µg/mL

CO/N=C(\C(=O)N[C@@H]1C(=O)N2C(C(=O)O)=C(COC(C)=O)CS[C@H]12)c1csc(N)n1 [cefotaxime]
MIC [10]: 64 µg/mL
kcat [16]: 25.4 s^–1
Km ([16]; 50 mM NaH2PO4 pH 7.4, room temperature): 115 µM
kcat [17]: 0.12 s^–1
Km ([17]; ADC-30, substrate, 50 mM NaH2PO4 pH 7.4, room temperature): 4.35 ± 1.81 µM
kcat [18]: 0.048 s^–1
Km ([18]; ADC-7, substrate, 50 mM NaH2PO4 pH 7.4, room temperature): 1.23 ± 0.17 µM
kcat [15]: 0.46 s^–1
Km ([15]; ADC-33, substrate, 50 mM NaH2PO4 pH 7.4, room temperature): 7.11 ± 1.05 µM
MIC [11]: 128 µg/mL
MIC [12]: 128 µg/mL
kcat [19]: 12.0 s^–1
kcat [20]: 44.2 s^–1
MIC [13]: 16 µg/mL
MIC [14]: 64 µg/mL
